Source: patent US5585367A (priority 1990, dated 1996)
Values after ≈ are worked out from the molar mass of the structure shown. Values joined by “and” are separate entries in the source; they are usually repeats but may differ in a detail not shown here. Equal values may be shown once. Read-outs that look alike come from different tables or passages of the source.

Columns and labels:
HIV-1 = format: cell-based
T4 lymphocytes [1] = assay: Treatment of three patients presenting different stages of AIDS; format: in vivo, human
Procedure: Three sound volunteers were treated for 30 days with 1500 mgr a day of a azobisformamide in three portions of 500 mgr.
On the other handy three patients presenting different stages of AIDS were also treated with azobisformamide in the same dosages as he sound volunteers.
The first patient in final phase presented at least 30 T4 lymphocytes/mm^3, abundant diarrheas and a complete space-time disorientation.
The second patient in "ARC" phase presented a lymphocytar T4 population of 190/ mm^3, in constant decrease, as well as occasional diarrheas and anal herpes.

[2] = tested on: Vesicular Stomatitis Virus (VSV); assay: microbe, parasite or virus in culture; format: cell-based; set-up: TCID 50: unit not given here; conditions: for log reduction at 50 µg/mL / log reduction at 100 µg/mL / log reduction at 150 µg/mL / log reduction at 250 µg/mL: Vesicular stomatitis virus, Vero
HIV-1 LAI/IIIB [3] = assay: Inhibition of HIV replication in PBL's; format: cell-based; conditions: PBLs; 0.4 μgr/ml to 250.0 μgr/ml
HIV-1 LAI/IIIB [4] = assay: Inhibition of HIV replication in MT4 cells; format: cell-based
HIV-1 Wild C = assay: Inhibition of HIV replication in PBL's; format: cell-based; conditions: Human immunodeficiency virus 1
HIV-1 Wild E = assay: Inhibition of HIV replication in PBL's; format: cell-based; conditions: Human immunodeficiency virus 1
HIV-1 Wild G = assay: Inhibition of HIV replication in PBL's; format: cell-based; conditions: Human immunodeficiency virus 1, Wild G (resistant to AZT, syncytium inducer)
HIV [5] = assay: Inhibition of HIV replication, summary over strains and cells; format: cell-based, HIV-1 and HIV-2; conditions: Human immunodeficiency virus 1, p24, 7 to 8 days after infection
pepsin = assay: Inhibition of pepsin; format: biochemical
HIV [6] = assay: In-vitro combination with didanosine; format: cell-based; conditions: at and below the IC50
CD4 lymphocyte [7] = assay: Treatment of four patients with advanced AIDS, CD4 lymphocyte counts (FIG. 1); format: in vivo, human; conditions: all dosage regimens combined
Procedure: Four patients with advanced AIDS have been treated with ADA. One patient has been treated during two periods, i.e., treated was restarted after a return to baseline subsequent to the withdrawal of ADA. The patients received capsules containing 500 mg. The dosage regimen was 500 mg three times a day except during the second treatment period in the patient who is also the patient of Example 27 where the dosage regimen was increased to 1 gram three times a day. The graph represents the median value of all CD4 lymphocyte counts measured in the patients. All dosage regimens are combined. There were five periods of ADA treatment. Due to the small number of values, medians were calculated by carrying forward the last values of the patients with no data point in the corresponding treatment week. Values of patients who dropped out of the study were carried forward. The linear regression is represented by the equation Y=77.2 +4.8 X, where Y is the absolute CD4 […] and X is the number of weeks after start of ADA treatment. The correlation coefficient is 0.79.

[8] = single dose of 3 g, one volunteer
[9] = oral
T4 lymphocytes [10] = assay: Treatment of three patients presenting different stages of AIDS; format: in vivo, human; conditions: first patient (final phase), 1500 mgr a day, day 30; day 0: 24 cells
clinical [11] = conditions: human, in vivo, po
clinical [12] = conditions: human, in vivo, po; remark: listed apart in the source
CD4 lymphocyte [13] = assay: Treatment of one patient with stage IV AIDS

NC(=O)N=NC(N)=O [ADA, 1,1'-azobisformamide]
protection of cellular cultures against the infectious power of HIV-1 (HIV-1): protects the cellular cultures against the infectious power of HIV-1 | coherent talking (T4 lymphocytes [1]; first patient, day 30): recovered their possibility of coherent talking | diarrhea (T4 lymphocytes [1]; first patient, day 30): the diarrhea has ended | walking autonomy (T4 lymphocytes [1]; first patient, day 30): limited walking autonomy | lymphocytes presenting the T4 receptor (T4 lymphocytes [1]; first patient, day 30, day 0: 5%): 9% | lymphocytes, % of white corpuscules (T4 lymphocytes [1]; first patient, day 30, day 0: 17%): 20% | white corpuscules (T4 lymphocytes [1]; first patient, day 30, day 0: 1850): 2600 | improvement of T4 lymphocytes (T4 lymphocytes [1]; first patient, day 30 vs day 0): 100% | T4 lymphocytes (T4 lymphocytes [1]; second patient ("ARC" phase), day 30, before: 190): 280 T4 lymphocytes/ mm^3 | diarrhea and anal herpes (T4 lymphocytes [1]; second patient, day 30): the diarrhea had completely disappeared as well as the anal herpes | T4 lymphocytes (T4 lymphocytes [1]; third patient (sound seropositive), day 30, before: 350): 440 T4 lymphocytes/ mm^3 | TCID 50 [2]: 6.90 and 6.73 and 6.55 and 4.28 and 3.75 and 3.58 and 3.93 | log reductions [2]: > 2.0 | log reduction at 50 µg/mL ([2]; 10 min, read-out: Log Red): 1.05 | log reduction at 100 µg/mL ([2]; 10 min, read-out: Log Red): 1.22 | log reduction at 150 µg/mL ([2]; 10 min, read-out: Log Red): 1.22 | log reduction at 250 µg/mL ([2]; 10 min, read-out: Log Red): 1.4 | log reduction at 50 µg/mL ([2]; 1 h, read-out: Log Red): 1.4 | log reduction at 100 µg/mL ([2]; 1 h, read-out: Log Red): 1.22 | log reduction at 150 µg/mL ([2]; 1 h, read-out: Log Red): 1.4 | log reduction at 250 µg/mL ([2]; 1 h, read-out: Log Red): 1.4 | log reduction at 50 µg/mL ([2]; 20 h, read-out: Log Red): 1.75 | log reduction at 100 µg/mL ([2]; 20 h, read-out: Log Red): 2.28 | log reduction at 150 µg/mL ([2]; 20 h, read-out: Log Red): 2.45 | log reduction at 250 µg/mL ([2]; 20 h, read-out: Log Red): 2.1 | log reduction at 150 µg/mL ([2]; read-out: log reduction (strongest effect)): 2.28 | inhibition of the replication of HIV-1 (strain IIIB(LAI)) (HIV-1 LAI/IIIB [3]): inhibit the replication | IC50 (HIV-1 LAI/IIIB [4]; Human immunodeficiency virus 1, IIIB, MT4, MT4 cells infected with HIV-1 strain LAI/IIIB, read-out: lowest observed IC50): 1.6 µg/mL (≈ 13.8 µM) | inhibition of the replication of HIV-1 (HIV-1 LAI/IIIB [4]; MT4 cells, 0.4 μgr/ml to 250.0 μgr/ml): inhibits the replication | IC50 (HIV-1 Wild C): 11.1 µg/mL (≈ 95.6 µM) | IC90 (HIV-1 Wild C): 18 µg/mL (≈ 155 µM) | IC50 (HIV-1 Wild E): 8.3 µg/mL (≈ 71.5 µM) | IC90 (HIV-1 Wild E): 18.4 µg/mL (≈ 159 µM) | IC50 (HIV-1 Wild G): 11.2 µg/mL (≈ 96.5 µM) | IC90 (HIV-1 Wild G): 21.2 µg/mL (≈ 183 µM) | IC50 (HIV [5]; read-out: IC50 range): 1.6 to 14.8 µg/mL (≈ 13.8 to 127 µM) | IC50 (HIV [5]; read-out: median IC50): 8 µg/mL (≈ 68.9 µM) | inhibition of pepsin (pepsin): does not inhibit pepsin | combination with didanosine (HIV [6]): additive effects | correlation coefficient of the CD4 regression (CD4 lymphocyte [7]): 0.79 | toxicity against VERO cells (VERO cells): No toxicity against VERO cells was observed | absorption and excretion [8]: can be absorbed and even excreted in its active form | absorption [9]: absorbed via the gastro-intestinal route | distribution [9]: distributes readily to intracellular compartments | T4 lymphocytes (T4 lymphocytes [10]): 49 cells/mm^3 | MTD (clinical [11]): 140 mg/kg | Tmax (clinical [12]): 1 to 1.5 h | absolute CD4 lymphocyte count (CD4 lymphocyte [13]; 500 mg three times a day, 26-week period, from 77): 144 cells/mm^3 | diarrhea (CD4 lymphocyte [13]; 12 weeks after restarting ADA): free of diarrhea | weight (CD4 lymphocyte [13]; 12 weeks after restarting ADA): gained considerable weight | weight and diarrhea after withdrawal of ADA (CD4 lymphocyte [13]; RT medication without ADA): lost weight and developed intractable diarrhea | CD4 lymphocyte count after withdrawal of ADA (CD4 lymphocyte [13]; RT medication without ADA, within two months): returned to baseline | CD4 lymphocyte count (CD4 lymphocyte [13]; fifteen weeks after restarting ADA): 190 cells/mm^3 | adverse effects that could be drug-related (CD4 lymphocyte [13]; occasional increases up to 2 grams three times a day): No adverse effects | CD4 lymphocyte count (CD4 lymphocyte [13]; restart at 1 gram three times a day, within two weeks): 144 cells/mm^3
